Measured values published in paper PMC10222328 (Pharmaceuticals, 2023).

Assays:
[1] = tested on: carrageenan-induced rat paw edema; experiment: Carrageenan-induced rat paw edema model; assay type: in vivo, Wistar albino rats; conditions: for Rat paw thickness: mean ± SD; for inhibition in vivo at 2.5 mg/kg / inhibition in vivo at 5 mg/kg / inhibition in vivo at 10 mg/kg: Rattus norvegicus, po
Description: In vivo assessment of anti-inflammatory activity of compounds 1–7 was conducted in the carrageenan-induced rat paw edema model. Inflammation in all rats was induced by an intraplantar injection of […] of 0.5% carrageenan saline in the left hind paw. Two hundred male Wistar albino rats (180–210 g) were divided into seven experimental (n = 168 rats, 8 rats per subgroup) and two control groups (n = 32 rats, 8 rats per subgroup).
Experimental groups involved rats that received compounds 1–7, and they were divided into three subgroups: rats received compounds 1–7 per os in three doses (2.5 mg/kg, 5 mg/kg, and 10 mg/kg) dissolved in 1% DMSO for 60 min before inducing inflammation.
In order to quantify the anti-inflammatory effect, the thickness of the left paw tissue of each rat was measured at the following time intervals: immediately before inducing inflammation (moment 0) and 1, 2, 3, and 4 h (moments 1, 2, 3, and 4) after inflammation. Tissue thickness was measured in the middle of the rat paw using a digital vernier caliper (Aerospace, Beijing, China).

[2] = target: T1, COX-2 (Homo sapiens, UniProt P35354); experiment: Fluorometric COX-2 inhibitor screening kit; assay type: biochemical
T1 construct: purchased Abcam, UK
T1 sequence (P35354 18-604): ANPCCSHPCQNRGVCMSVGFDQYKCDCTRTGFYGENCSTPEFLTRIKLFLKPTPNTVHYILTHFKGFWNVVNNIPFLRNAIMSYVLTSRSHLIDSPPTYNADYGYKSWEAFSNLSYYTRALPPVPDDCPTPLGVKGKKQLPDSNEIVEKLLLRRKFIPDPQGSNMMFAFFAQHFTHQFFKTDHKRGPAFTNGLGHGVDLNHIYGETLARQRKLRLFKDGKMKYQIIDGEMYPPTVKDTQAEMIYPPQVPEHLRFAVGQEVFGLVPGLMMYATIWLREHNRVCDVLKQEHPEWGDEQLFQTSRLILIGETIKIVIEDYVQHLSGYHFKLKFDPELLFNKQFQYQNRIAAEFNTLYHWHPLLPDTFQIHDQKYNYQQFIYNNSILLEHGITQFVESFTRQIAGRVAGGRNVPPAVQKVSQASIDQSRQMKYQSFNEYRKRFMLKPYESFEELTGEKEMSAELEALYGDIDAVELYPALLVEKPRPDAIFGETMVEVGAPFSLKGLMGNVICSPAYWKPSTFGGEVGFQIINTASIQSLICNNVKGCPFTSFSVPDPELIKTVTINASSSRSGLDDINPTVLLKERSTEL
Description: (§1) COX-2 and 5-LOX inhibitory activities were tested using fluorometric COX-2 and 5-LOX inhibitor screening kits (Abcam, UK). These assays are based on the fluorometric detection of Prostaglandin G2 (a product generated by the COX enzyme) or on the fluorometric detection of intermediate generated by the 5-LOX enzyme. The experiments were conducted according to the manufacturers’ instructions.
(§2) For the determination of COX-2 inhibitory activity, tested compounds were dissolved in DMSO (5 mM stock solutions) and then diluted with the same solvent to obtain test solutions. Test solutions were further diluted 5X with COX assay buffer (2 µL of test solution and 8 µL COX assay buffer). […] Solvent control (SC) was prepared by adding 2 µL DMSO and 8 µL COX assay buffer, while sample (S) and enzyme control (EC) were prepared by adding 10 µL of diluted test solution and COX assay buffer, respectively, into assigned wells. For the determination of 5-LOX inhibitory activity, tested compounds were also dissolved in DMSO to prepare stock solutions with the same concentration (5mM), which were then diluted with the same solvent to obtain test solutions. Subsequently, test solutions were added to corresponding wells (2 µL).

[3] = tested on: COX-1; conditions: COX-1 over COX-2; cited from earlier work
[4] = target: T2, 5-LOX (Homo sapiens, UniProt P09917); experiment: Fluorometric 5-LOX inhibitor screening kit; assay type: biochemical; conditions: at 10 µM; mean ± standard error of two measurements; read-out: 5-LOX Percent of Inhibition
T2 construct: purchased Abcam, UK
T2 sequence (P09917 1-674): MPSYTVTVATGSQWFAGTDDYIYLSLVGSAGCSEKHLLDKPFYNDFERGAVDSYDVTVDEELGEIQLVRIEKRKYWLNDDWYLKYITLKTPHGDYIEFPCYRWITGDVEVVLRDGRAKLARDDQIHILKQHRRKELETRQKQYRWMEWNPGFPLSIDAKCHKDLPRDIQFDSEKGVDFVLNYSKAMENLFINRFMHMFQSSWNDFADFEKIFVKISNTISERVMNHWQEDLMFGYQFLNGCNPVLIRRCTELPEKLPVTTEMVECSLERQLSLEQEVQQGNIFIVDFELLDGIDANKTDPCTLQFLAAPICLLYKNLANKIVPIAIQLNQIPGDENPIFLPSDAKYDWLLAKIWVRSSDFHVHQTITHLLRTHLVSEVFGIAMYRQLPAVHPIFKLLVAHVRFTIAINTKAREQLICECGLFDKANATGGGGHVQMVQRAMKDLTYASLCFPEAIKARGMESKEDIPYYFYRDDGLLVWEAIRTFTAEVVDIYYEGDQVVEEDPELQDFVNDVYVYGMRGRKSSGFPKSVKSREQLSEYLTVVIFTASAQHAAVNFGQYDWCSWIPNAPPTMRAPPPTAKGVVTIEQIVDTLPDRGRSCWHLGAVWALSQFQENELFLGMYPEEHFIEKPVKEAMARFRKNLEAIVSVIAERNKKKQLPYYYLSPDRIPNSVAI
Description: as §1, §2

COc1ccc2cc([C@H](C)C(=O)O)ccc2c1 [Naproxen, reference compound]
Rat paw thickness ([1]; 2.5 mg/kg per os, 1 h after carrageenan): 6.20 ± 0.10 mm
Rat paw thickness ([1]; 2.5 mg/kg per os, 2 h after carrageenan): 5.87 ± 0.12 mm
Rat paw thickness ([1]; 2.5 mg/kg per os, 3 h after carrageenan): 5.60 ± 0.17 mm
Rat paw thickness ([1]; 2.5 mg/kg per os, 4 h after carrageenan): 5.03 ± 0.25 mm
Rat paw thickness ([1]; 5.0 mg/kg per os, 1 h after carrageenan): 5.87 ± 0.23 mm
Rat paw thickness ([1]; 5.0 mg/kg per os, 2 h after carrageenan): 5.37 ± 0.31 mm
Rat paw thickness ([1]; 5.0 mg/kg per os, 3 h after carrageenan): 5.07 ± 0.35 mm
Rat paw thickness ([1]; 5.0 mg/kg per os, 4 h after carrageenan): 4.83 ± 0.21 mm
Rat paw thickness ([1]; 10.0 mg/kg per os, 1 h after carrageenan): 5.73 ± 0.20 mm
Rat paw thickness ([1]; 10.0 mg/kg per os, 2 h after carrageenan): 5.40 ± 0.40 mm
Rat paw thickness ([1]; 10.0 mg/kg per os, 3 h after carrageenan): 5.20 ± 0.30 mm
Rat paw thickness ([1]; 10.0 mg/kg per os, 4 h after carrageenan): 4.80 ± 0.40 mm
inhibition in vivo at 2.5 mg/kg ([1]; 1 h, 2.5 mg/kg per os, 1 h after carrageenan): 18.9%
inhibition in vivo at 5 mg/kg ([1]; 1 h, 5.0 mg/kg per os, 1 h after carrageenan): 27.1%
inhibition in vivo at 10 mg/kg ([1]; 1 h, 10.0 mg/kg per os, 1 h after carrageenan): 35.4%
inhibition in vivo at 2.5 mg/kg ([1]; 2 h, 2.5 mg/kg per os, 2 h after carrageenan): 24.9%
inhibition in vivo at 5 mg/kg ([1]; 2 h, 5.0 mg/kg per os, 2 h after carrageenan): 41.8%
inhibition in vivo at 10 mg/kg ([1]; 2 h, 10.0 mg/kg per os, 2 h after carrageenan): 43.3%
inhibition in vivo at 2.5 mg/kg ([1]; 3 h, 2.5 mg/kg per os, 3 h after carrageenan): 25.1%
inhibition in vivo at 5 mg/kg ([1]; 3 h, 5.0 mg/kg per os, 3 h after carrageenan): 47.1%
inhibition in vivo at 10 mg/kg ([1]; 3 h, 10.0 mg/kg per os, 3 h after carrageenan): 45.2%
inhibition in vivo at 2.5 mg/kg ([1]; 4 h, 2.5 mg/kg per os, 4 h after carrageenan): 44.8%
inhibition in vivo at 5 mg/kg ([1]; 4 h, 5.0 mg/kg per os, 4 h after carrageenan): 49.4%
inhibition in vivo at 10 mg/kg ([1]; 4 h, 10.0 mg/kg per os, 4 h after carrageenan): 56.3%
IC50 [2]: 200 ± 20 nM
inhibition at 10 µM ([2]; read-out: COX-2 Percent of Inhibition): 72.2 ± 1.4%
Selectivity for COX-1 [3]: approximately five

CC(c1cc2ccccc2s1)N(O)C(N)=O (stereo not shown) [Zileuton, reference compound]
inhibition at 10 µM [4]: 64.85 ± 0.39%
